The source of these data is patent US12447137B2, “Composition for prevention, amelioration, or treatment of cancer” (EWHA UNIVERSITY—INDUSTRY COLLABORATION FOUNDATION, priority 2019, dated 2025).

Like-named read-outs stand apart in the source and are kept apart here.

One assay has as its system 4T1 cell line. Description: Cell viability assay (WST-1). It counts as cell-based. As to conditions: Mus musculus. As for the experimental part: (§1) [4-1-1] The breast cancer cell line of Experimental Method 1 was treated with 5-aminoimidazole-4-carboxamide ribonucleotide (AICAR) (which is not the compound of Production Example 6) or the compound of Production Example 6 at a concentration of 0 to 30 μM, and then cultured for 24 hours, 48 hours and 72 hours. Thereafter, the cultured cells were treated with WST-1 reagent, and then the absorbance at a wavelength of 450 nm was measured. Here, the WST-1 reagent allows the cell viability to be measured by changing the color of the culture medium depending on the level of the mitochondrial dehydrogenase present in the cell.
(§2) [4-1-2] The breast cancer cell line 4T1, BT549 or MDA-MB-231 of Experimental Method 1 was treated with each of the compound of Production Example 6 and 13 compounds, including the compounds of Production Examples 1 to 5 and 8 to 15 having a similar structure (YE-01, 02, 03, 04, 05, 08, 09, 10, 11, 12, 13, 14 and 15), at a concentration of 0 to 50 μM, and then cultured for 24 hours. Each of three types of gastric cancer cell lines, brain cancer cell lines and pancreatic cancer cell lines was treated with the compound of Production Example 6 or the compound of Production Example 8 having a similar structure at a concentration of 0 to 50 μM, and then cultured for 24 hours. Thereafter, the cultured cells were treated with WST-1 reagent according to the manufacturer's instruction, and after a certain time, the absorbance at a wavelength of 450 nm was measured. Here, the WST-1 reagent allows the cell viability to be measured by changing the color of the culture medium depending on the level of the mitochondrial dehydrogenase present in the cell.

The test system of a further assay is MDA-MB-231 cell line. Briefly: Cell viability assay (WST-1). It counts as cell-based. As to conditions: Homo sapiens, MDA-MB-231, 24 h, read-out: cancer cell viability inhibited. Here is the method: as §1, §2
Another assay relates to BT549 cell line. Description: Cell viability assay (WST-1). As to conditions: Homo sapiens. It counts as cell-based. Here is the method:
as §1, §2

The subject of assay [1] is EMT protein markers α-SMA, Vimentin, ZEB-1 and Slug. Briefly: EMT protein marker Western blot, TGF-β1-treated MDA-MB-231 cells. It counts as cell-based, human. As to conditions: MDA-MB-231, with TGF-β1; FIG. 7A. As for the experimental part: (§3) The culture medium of the breast cancer cell line of Experimental Method 1 was replaced with a serum-free medium. Then, the cells were treated with 2 ng/mL of TGF-β1 and the compound of Preparation Example 6 and cultured for 20 to 24 hours. Thereafter, as described in Experimental Method 3, the expression level of the protein was measured using an antibody specific for the EMT-related protein.

The subject of assay [2] is p-AMPK (Thr172). Briefly: AMPK activation by p-AMPK (Thr172) Western blot in BT549 cells. It counts as cell-based, human. As to conditions: BT549, 10 μM, 24 hours; FIG. 3B. As for the experimental part:
(§4) [3-1] The breast cancer cell line of Experimental Method 1 above was treated with the compound of Production Example 6 at a concentration of 0 to 30 μM, and then cultured for 24 hours. Thereafter, the cells were harvested and lysed in RIPA buffer, and the protein was electrophoresed by SDS-PAGE, and then the expression level of the protein was analyzed using antibodies specific for AMPK and phospho-AMPK (Thr172). GAPDH or β-actin was used as a loading control for protein quantification.
[3-2] The three breast cancer cell lines (4T1, BT549, and MDA-MB-231) of Experimental Method 1 were treated with each of the compound of Production Example 6 and 13 compounds, including the compounds of Production Examples 1 to 5 and 8 to 15 having a similar structure (YE-01, 02, 03, 04, 05, 08, 09, 10, 11, 12, 13, 14 and 15), at a concentration of 10 μM, and then cultured for 24 hours. […] Thereafter, the cells were harvested and lysed in RIPA buffer, and the protein was electrophoresed by SDS-PAGE, and then the expression level of the protein was analyzed using antibodies specific for AMPK and phospho-AMPK (Thr172). GAPDH or β-actin was used as a loading control for protein quantification.

The test system of assay [3] is EMT protein markers α-SMA, Vimentin, ZEB-1 and Slug. Description: EMT protein marker Western blot, TGF-β1-treated BT549 cells. It counts as cell-based, human. As to conditions: BT549, with TGF-β1; FIG. 7A. As for the experimental part: as §3
Assay [4] deals with p-AMPK (Thr172). Description: AMPK activation by p-AMPK (Thr172) Western blot in 4T1 cells. It counts as cell-based, mouse. As to conditions: 24 hours. As for the experimental part: as §4
[3-2] The three breast cancer cell lines (4T1, BT549, and MDA-MB-231) of Experimental Method 1 were treated with each of the compound of Production Example 6 and 13 compounds, including the compounds of Production Examples 1 to 5 and 8 to 15 having a similar structure (YE-01, 02, 03, 04, 05, 08, 09, 10, 11, 12, 13, 14 and 15), at a concentration of 10 μM, and then cultured for 24 hours. In addition, each of two types of gastric cancer cell lines, brain cancer cell lines and pancreatic cancer cell lines was treated with the compound of Production Example 6 or the compound of Production Example 8 having a similar structure at a concentration of 10 μM and then cultured for 12 hours. Thereafter, the cells were harvested and lysed in RIPA buffer, and the protein was electrophoresed by SDS-PAGE, and then the expression level of the protein was analyzed using antibodies specific for AMPK and phospho-AMPK (Thr172). GAPDH or β-actin was used as a loading control for protein quantification.

Take `COc1ccc(OC)c(/C=C/C(=O)c2ccc(NS(=O)(=O)c3ccc(Cl)cc3)cc2)c1` [Production Example 6, (E)-4-chloro-N-(4-(3-(2,5-dimethoxyphenyl)acryloyl)phenyl)benzenesulfonamide]: the cytotoxicity at 10 µM was not below 50% in the assay on 4T1 cell line (4T1, 24 h, read-out: cancer cell viability inhibited); not below 50% with 4T1 cell line (4T1, read-out: cell viability inhibited); not below 50% in the assay with MDA-MB-231 cell line; not below 50% in the assay on BT549 cell line (BT-549, 24 h, read-out: cancer cell viability inhibited); not below 50% with BT549 cell line (BT-549, read-out: cell viability inhibited). Moreover, the Slug protein entry in assay [1] and in assay [3] was “decreased” each time. For the same compound, the Vimentin protein result in assay [1] and in assay [3] was “decreased” each time. For the same compound, the ZEB-1 protein result in assay [1] and in assay [3] was “decreased” throughout. Besides, the α-SMA protein entry in assay [1] and in assay [3] was “decreased” throughout. The p-AMPK level result is “effectively increased” in the assay with p-AMPK (Thr172) [2] and “effectively increased” with p-AMPK (Thr172) [4] (4T1, 10 μM, FIG. 3B). Besides, in the assay with p-AMPK (Thr172) [4] (4T1, 0 to 30 μM, FIG. 5), the phospho-AMPK protein result is recorded as “increased in a concentration-dependent manner”.
